The data set relates to volunteers. The arrangement: species or system human. Particulars: in vivo. As to the method: In this Example, subjects tested 4 different beverages, consumed in the morning with at least one week washout between test days. The beverages were consumed on an empty stomach, and there was instruction for subjects to wait 2 hours before having any other food. The primary outcome was the total gastrointestinal symptom scores over 24-hours for loose stool GI symptom derived from a GI symptoms rating diary. The 4 test beverages (8 oz./236.6 ml) were flavoured with a strawberry mix and contained: 1) 25 g of D-allulose; 2) 25 g of D-allulose and 25 g of D-glucose; 3) 25 g of D-allulose and 1 g of beta-glucan fiber; or 4) 25 g of sucrose. […] On the day of the test, the subjects followed the below set of instructions: • 1. Testing start times begin when you start consuming the drink; record date and time you begin on the diary. • 2. Consume the test drink at the same time each week. • a. Consume the entire drink 8 oz. (236.6 ml) drink in under 15 minutes. • b. Refill the drink container with water and consume as a chaser. • c. You may have additional water after 60 minutes as desired. • 3. Record GI symptom scores at 2, 4 and 24-hours after starting drink consumption. • 4. You may eat a snack or breakfast 2 hours after the test drink. • 5. Record all bowel movements and the Bristol Stool type during the 24-hour observation period. • 6. Resume normal food consumption for the day; however avoid foods which you know may cause gastric upset or gas for the 24-hour observation period. […] The Bristol Stool test scores were scored from 1-7. […]

For `O=C(CO)[C@H](O)[C@H](O)[C@H](O)CO` [D-allulose], the “number of people reporting symptoms” value was “greatest”; the “order of softer stools” value is given as “allulose>allulose+beta-glucan>allulose+D-glucose>sucrose”; the “stool softening (Bristol Stool test score, 24 hour average)” value was “softening effect”.
